# Reference: ChEMBL document CHEMBL1201862, “PubChem BioAssay data set” (2004)
#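 All cell lines were grown in 96-well plates and treated with compound for 48 hours. GI50 marks 50% less growth.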 Calls of active or inactive are those of the source. Rule as the data show it: active = GI50 up to about 1.1 µM and inactive = higher.
# Legend:
# Experiment in all cases: NCI tumour cell line growth inhibition, 48 h
# HOP-92 = system: HOP-92
# M14 = system: M14
# HCC 2998 = system: HCC 2998
# SNB-75 = system: SNB-75
# SK-OV-3 = system: SK-OV-3
# A549 = system: A549
# EKVX = system: EKVX
# SNB-78 = system: SNB-78
# A498 = system: A498
# LXFL 529 = system: LXFL 529
# DMS-114 = system: DMS-114
# IGROV-1 = system: IGROV-1
# HCT-116 = system: HCT-116
# UACC-62 = system: UACC-62
# HL-60 = system: HL-60
# CAKI-1 = system: CAKI-1
# SNB-19 = system: SNB-19
# KM-20L2 = system: KM-20L2
# NCI-H522 = system: NCI-H522
# NCI-H460 = system: NCI-H460
# RXF 393 = system: RXF 393
# MOLT-4 = system: MOLT-4
# SK-MEL-5 = system: SK-MEL-5
# CCRF-CEM = system: CCRF-CEM
# OVCAR-5 = system: OVCAR-5
# Malme-3M = system: Malme-3M
# HCT-15 = system: HCT-15
# OVCAR-3 = system: OVCAR-3
# RPMI-8226 = system: RPMI-8226
# KM12 = system: KM12
# DMS-273 = system: DMS-273
# SK-MEL-2 = system: SK-MEL-2
# NCI-H23 = system: NCI-H23
# DLD-1 = system: DLD-1
# 786-0 = system: 786-0
# UO-31 = system: UO-31
# HOP-62 = system: HOP-62
# SK-MEL-28 = system: SK-MEL-28
# LOX IMVI = system: LOX IMVI
# HOP-18 = system: HOP-18
# K562 = system: K562
# XF498 = system: XF498
# COLO 205 = system: COLO 205
# ACHN = system: ACHN
# SF-295 = system: SF-295
# TK-10 = system: TK-10
# SW-620 = system: SW-620
# OVCAR-8 = system: OVCAR-8
# M19-MEL = system: M19-MEL
# SF-539 = system: SF-539
# U-251 = system: U-251
# UACC-257 = system: UACC-257
# NCI-H226 = system: NCI-H226
# HT-29 = system: HT-29
# SN12C = system: SN12C
# SF-268 = system: SF-268
# OVCAR-4 = system: OVCAR-4
# SR = system: SR
smiles,measurement,setting,value
Cc1ccccc1N1C(=O)C2C=CC(n3[nH]c(=O)n(Cc4ccccc4)c3=O)CC2C1=O (stereo not given),GI50,HOP-92,> 100 µM (inactive)
same,GI50,M14,> 100 µM (inactive)
same,GI50,HCC 2998,> 100 µM (inactive)
same,GI50,SNB-75,70 µM (inactive)
same,GI50,SK-OV-3,> 100 µM (inactive)
same,GI50,A549,> 100 µM (inactive)
same,GI50,EKVX,> 100 µM (inactive)
same,GI50,SNB-78,> 100 µM (inactive)
same,GI50,A498,> 100 µM (inactive)
same,GI50,LXFL 529,> 100 µM (inactive)
same,GI50,DMS-114,> 100 µM (inactive)
same,GI50,IGROV-1,> 100 µM (inactive)
same,GI50,HCT-116,> 100 µM (inactive)
same,GI50,UACC-62,> 100 µM (inactive)
same,GI50,HL-60,> 100 µM (inactive)
same,GI50,CAKI-1,> 100 µM (inactive)
same,GI50,SNB-19,> 100 µM (inactive)
same,GI50,KM-20L2,> 100 µM (inactive)
same,GI50,NCI-H522,> 100 µM (inactive)
same,GI50,NCI-H460,> 100 µM (inactive)
same,GI50,RXF 393,> 100 µM (inactive)
same,GI50,MOLT-4,> 100 µM (inactive)
same,GI50,SK-MEL-5,> 100 µM (inactive)
same,GI50,CCRF-CEM,> 100 µM (inactive)
same,GI50,OVCAR-5,> 100 µM (inactive)
same,GI50,Malme-3M,> 100 µM (inactive)
same,GI50,HCT-15,> 100 µM
same,GI50,OVCAR-3,> 100 µM (inactive)
same,GI50,RPMI-8226,> 100 µM (inactive)
same,GI50,KM12,> 100 µM (inactive)
same,GI50,DMS-273,> 100 µM (inactive)
same,GI50,SK-MEL-2,> 100 µM (inactive)
same,GI50,NCI-H23,> 100 µM (inactive)
same,GI50,DLD-1,> 100 µM (inactive)
same,GI50,786-0,> 100 µM (inactive)
same,GI50,UO-31,> 100 µM (inactive)
same,GI50,HOP-62,> 100 µM (inactive)
same,GI50,SK-MEL-28,> 100 µM (inactive)
same,GI50,LOX IMVI,> 100 µM (inactive)
same,GI50,HOP-18,> 100 µM (inactive)
same,GI50,K562,> 100 µM (inactive)
same,GI50,XF498,> 100 µM (inactive)
same,GI50,COLO 205,> 100 µM (inactive)
same,GI50,ACHN,> 100 µM (inactive)
same,GI50,SF-295,> 100 µM (inactive)
same,GI50,TK-10,> 100 µM (inactive)
same,GI50,SW-620,> 100 µM (inactive)
same,GI50,OVCAR-8,> 100 µM (inactive)
same,GI50,M19-MEL,> 100 µM (inactive)
same,GI50,SF-539,> 100 µM (inactive)
same,GI50,U-251,> 100 µM (inactive)
same,GI50,UACC-257,> 100 µM (inactive)
same,GI50,NCI-H226,> 100 µM (inactive)
same,GI50,HT-29,> 100 µM (inactive)
same,GI50,SN12C,> 100 µM (inactive)
same,GI50,SF-268,> 100 µM (inactive)
CSC(=N)N1N=C2/C(=C/c3ccccc3)CCC[C@H]2[C@H]1c1ccccc1,GI50,HOP-92,4.28 µM (inactive)
same,GI50,M14,3.67 µM (inactive)
same,GI50,HCC 2998,3.27 µM (inactive)
same,GI50,SK-OV-3,3.68 µM (inactive)
same,GI50,A549,4.49 µM (inactive)
same,GI50,EKVX,4.56 µM (inactive)
same,GI50,SNB-78,16 µM (inactive)
same,GI50,A498,4.11 µM (inactive)
same,GI50,LXFL 529,4.55 µM (inactive)
same,GI50,DMS-114,2.9 µM (inactive)
same,GI50,IGROV-1,2.12 µM (inactive)
same,GI50,HCT-116,2.83 µM (inactive)
same,GI50,UACC-62,10.9 µM (inactive)
same,GI50,HL-60,1.72 µM (inactive)
same,GI50,SNB-19,6.47 µM (inactive)
same,GI50,KM-20L2,2.34 µM (inactive)
same,GI50,NCI-H522,4.23 µM (inactive)
same,GI50,NCI-H460,5.68 µM (inactive)
same,GI50,RXF 393,2.86 µM (inactive)
same,GI50,MOLT-4,2.69 µM (inactive)
same,GI50,CCRF-CEM,2.6 µM (inactive)
same,GI50,OVCAR-5,3.98 µM (inactive)
same,GI50,Malme-3M,1.93 µM (inactive)
same,GI50,HCT-15,6.52 µM
same,GI50,OVCAR-3,10.6 µM (inactive)
same,GI50,RPMI-8226,2.18 µM (inactive)
same,GI50,KM12,9.84 µM (inactive)
same,GI50,DMS-273,2.75 µM (inactive)
same,GI50,SK-MEL-2,4.2 µM (inactive)
same,GI50,NCI-H23,4.88 µM (inactive)
same,GI50,DLD-1,3.48 µM (inactive)
same,GI50,786-0,5.47 µM (inactive)
same,GI50,UO-31,3.4 µM (inactive)
same,GI50,HOP-62,6.65 µM (inactive)
same,GI50,OVCAR-4,2.58 µM (inactive)
same,GI50,SK-MEL-28,3.13 µM (inactive)
same,GI50,LOX IMVI,4.19 µM (inactive)
same,GI50,HOP-18,1.07 µM (active)
same,GI50,K562,1.91 µM (inactive)
same,GI50,XF498,10.8 µM (inactive)
same,GI50,COLO 205,1.55 µM (inactive)
same,GI50,ACHN,3.36 µM (inactive)
same,GI50,SF-295,4.69 µM (inactive)
same,GI50,TK-10,12.7 µM (inactive)
same,GI50,SW-620,3.91 µM (inactive)
same,GI50,OVCAR-8,10.8 µM (inactive)
same,GI50,SF-539,6.58 µM (inactive)
same,GI50,SR,1.85 µM (inactive)
same,GI50,U-251,12 µM (inactive)
same,GI50,UACC-257,2.37 µM (inactive)
same,GI50,NCI-H226,2.64 µM (inactive)
same,GI50,HT-29,2.07 µM (inactive)
same,GI50,SN12C,3.92 µM (inactive)
same,GI50,SF-268,15.2 µM (inactive)
